{"source": "patent US20250235562A1", "about": "“USE OF SECOND NEAR-INFRARED ORGANIC FLUORESCENT COMPOUND IN PREPARATION OF BIOIMAGING CONTRAST AGENT AND IN VASCULAR FLUORESCENCE IMAGING” (INNER MONGOLIA UNIVERSITY, priority 2024, published 2025)", "test": "Photostability test under continuous white light irradiation", "assay_type": "physicochemical", "conditions": "50 mW·cm^−2 white light, continuous irradiation 40 min", "description": "(3) Photostability test of the nanoimaging agent Y6CT-NPs: commercial imaging agent indocyanine green (ICG) was selected as a reference. Y6CT-NPs and ICG were irradiated continuously by 50 mW·cm^−2 white light (laparoscopic LED cold light source) for 40 min, and the fluorescence intensity of the two were recorded at different time points, a ratio of which to the initial fluorescence intensity was calculated to compare the attenuation degree of fluorescence intensity and photostability between the two.", "data": [{"smiles": "CC1(C)C(/C=C/C=C/C=C/C=C2\\N(CCCCS(=O)(=O)O)c3ccc4ccccc4c3C2(C)C)=[N+](CCCCS(=O)(=O)[O-])c2ccc3ccccc3c21", "note": "[ICG, indocyanine green]", "values": [{"measurement": "change of fluorescence intensity after continuous irradiation", "result": "decreases significantly"}, {"measurement": "fluorescence intensity at 40 min relative to the initial fluorescence intensity", "result": 30, "unit": "%"}]}]}
